The source of these data is US10556879B2, “Retinoid compound, preparation method therefor, intermediates thereof and application thereof” (SHANGHAI INSTITUTE OF ORGANIC CHEMISTRY, CHINESE ACADEMY OF …, priority 2016, dated 2020).

“Also recorded” adds a separate entry of the source. Like-named read-outs stand apart in the source and are kept apart here.

In series [1] the test system is tumor-repopulating cells of B16-F1 melanoma. Description: Inhibitory activity on proliferation of tumor-repopulating cells (TRCs) of B16-F1 melanoma in 3D fibrin gel. The class given is cell-based. The settings on record: Mus musculus. The method, then: B16-F1 Melanoma cells were incubated with 3D fibrin gel medium (90-Pa) for 5 days, and the desired tumor-repopulating cells of melanoma were screened (Nat. Mater. 2012, 11, 734). Subsequently, the culture medium was respectively treated with collagenase and neutral protease II, and the tumor-repopulating cells of B16-F1 melanoma were released, then the obtained repopulating cells were transferred to a freshly prepared medium to be resuspended and maintained at single-cell state. The tumor-repopulating cells of B16-F1 melanoma were inoculated in 3D fibrin gel medium (90-Pa) for 5 days, with 0.1% DMSO as the negative control group, Tazarotene and Bexarotene as the positive control drugs respectively, […] for 5 days. The colony tumor size was measured and calculated, and the inhibition rate of each drug on the tumor-repopulating cells of B16-F1 melanoma was calculated. The results of inhibitory activity of the compound of the present invention on the proliferation of tumor-repopulating cells of B16-F1 melanoma were shown in Table 2 below.

Series [2] concerns subcutaneous implantation tumor of B16-F1 melanoma. Put plainly: Subcutaneous implantation model of B16-F1 melanoma in immunocompetent mice. The class given is in vivo, mice (C57BL/6). The method, then: A subcutaneous implantation model of B16-F1 melanoma in immunocompetent mice (C57BL/6, female, 6-8 weeks) was established to study the inhibitory activity of compound WYC-103 on the tumor in situ. Firstly, B16-F1 cells were incubated within 3D fibrin gel (90-Pa in gel stiffness) that was immersed in culture medium for 5 days, and the desired tumor-repopulating cells were screened. Subsequently, the culture medium was respectively treated with collagenase and neutral protease II, and the tumor-repopulating cells of B16-F1 melanoma were released, then the obtained repopulating cells were transferred to a freshly prepared medium to be re-suspended and maintained at single-cell state.
Six immunocompetent mice were randomly divided into two groups which were respectively the treatment group and the DMSO negative control group. Mice were subcutaneously injected with 30,000 tumor-repopulating cells of melanoma to establish a subcutaneous implantation model of melanoma. Subsequently, Mice were administered via tail vein injection based on the body weight and the blood volume of the mice. From day 0, mice in the treatment group were administrated with WYC-103 once every 2 days at a blood concentration of 10 μM and fed normally, observing the survival of the mice. […] According to the statistical analysis, the tumor volume in the treatment group was only 50% of the control group (FIG. 12).
This experiment was repeated in order to further confirm the inhibitory activity of WYC-103 on subcutaneous implantation tumor of B16-F1 melanoma. In the present experiment, 18 immunocompetent mice (C57BL/6, female, 6-8 weeks) were randomly divided into three groups which were respectively the treatment group, the positive control group (BMS-453 was used as the positive drug) and the DMSO negative control group. Subsequently, Mice were administered via tail vein injection based on the body weight and the blood volume of the mice. From day 0, mice in the treatment group were administrated with WYC-103 once every 2 days at a blood concentration of 10 μM; mice in the positive control group were administered with BMS-453 (WYC-114) as the positive drug in the same route of administration; mice in the negative control group was administered with 0.1% DMSO in a same route of administration.

For series [3], the system named is metastatic melanoma in the lung. Put plainly: Metastatic melanoma in the lung model, 3000 tumor-repopulating cells via tail vein (WYC-103). Format: in vivo. Particulars: blood concentration 10 μM. From the text: A metastatic melanoma model in the mouse was established to study whether WYC-103 could inhibit metastatic melanoma in the lung thus prevent secondary tumorigenesis. Firstly, 12 normally immunocompetent mice (C57BL/6, female, 6-8 weeks) were randomly selected and injected via the tail vein with 3000 tumor-repopulating cells of melanoma to establish a metastatic melanoma model in the mouse. The model mice were randomly divided into two groups which were respectively the treatment group and the negative control group. The mice were administered with WYC-103 (the treatment group) and DMSO (the negative control group) via tail vein injection once every 2 days at a blood concentration of 10 μM based on the body weight and the blood volume of the mice.

In series [4] the test system is tumor-repopulating cells of A2780 ovarian cancer. Put plainly: Inhibition of proliferation of tumor-repopulating cells, colony tumor volume in 3D fibrin gel. Format: cell-based, human. The settings on record: A2780 TRCs, 10 μM. The method, then:
(§1) Therefore, we further studied the inhibitory activity of this compound against tumor-repopulating cells of six other kinds of human tumor, including A549 lung cancer cell, MCF-7 breast cancer cell, MDA-MB-435S melanoma cell, A2780 ovarian cancer cell, Hs-746T gastric cancer cell, MDA-MB-231 breast cancer cell.
(§2) The above cancer cells were incubated with 3D fibrin gel medium (90-Pa) for 5 days, and the desired tumor-repopulating cells were screened. Subsequently, the culture medium was respectively treated with collagenase and neutral protease II, and the tumor-repopulating cells of B16-F1 melanoma were released, then the obtained repopulating cells were transferred to a freshly prepared medium to be resuspended and maintained at single-cell state. The tumor-repopulating cells of individual tumor were inoculated in 3D fibrin gel medium (90-Pa) for 5 days, with 0.1% DMSO as the negative control group (represented by DMSO group in FIGS. 3-8), the drug-free group as vehicle control group (represented by None group in FIGS. 3-8), and the study was performed by beginning administrating on the day 0 and the 3rd day respectively, and the colony tumor volume was measured and calculated.
as §2, with “The above human tumor cells were” for “The above cancer cells were”, “cells of B16-F1 melanoma were inoculated” for “cells of individual tumor were inoculated”, “group in FIG. 9), the drug-free” for “group in FIGS. 3-8), the drug-free”, “measured and calculated, beginning administrating from the 3rd day at a concentration of 0.1 μM, 1.0 μM, and 10 μM respectively, the colony tumor volume was measured and calculated.” for “measured and calculated.”

Series [5] relates to tumor-repopulating cells of MDA-MB-231 breast cancer. The series is described as above. Format: cell-based, human. Particulars: MDA-MB-231 TRCs. The method, then: as §1, §2
as §2, with “The above human tumor cells were” for “The above cancer cells were”, “cells of B16-F1 melanoma were inoculated” for “cells of individual tumor were inoculated”, “group in FIG. 9), the drug-free” for “group in FIGS. 3-8), the drug-free”, “measured and calculated, beginning administrating from the 3rd day at a concentration of 0.1 μM, 1.0 μM, and 10 μM respectively, the colony tumor volume was measured and calculated.” for “measured and calculated.”

For series [6], the system named is 3T3 mouse embryonic fibroblast cells. Put plainly: In vitro toxicity on normal cells (proliferation, apoptosis). Format: cell-based. The settings on record: 10 μM. As to the method:
(§3) The 3T3 mouse embryonic fibroblast cells and B16-F1 melanoma cells were used as the model to study in vitro toxicity of WYC-209 and WYC-331 respectively. The effect of compound WYC-209 and WYC-331 on the proliferation of 3T3 mouse embryonic fibroblast cells and B16-F1 melanoma cells were studied at a concentration of 10 μM.

The test system of a further series is B16-F1 melanoma cells. Description: In vitro effect on B16-F1 melanoma cells (proliferation, apoptosis) in the toxicity study. The class given is cell-based. Particulars: 10 μM. As to the method:
as §3

Where [7] appears, read: B16-F1, 120 h, 10 μM, incubated 5 days, colony tumor size, read-out: Inhibition rate on TRCs of B16-F1 melanoma at a concentration of 10 μM (%).
Setting [8] is: B16-F1, 10 μM (Table 3), read-out: Inhibition rate on TRCs of B16-F1 melanoma at a concentration of 10 μM/%.

As to `CCOC(=O)c1ccc(C#Cc2ccc3c(c2)C(C)(C)CCS3)cc1O` [WYC-103, ethyl 4-((4,4-dimethylthiochroman-6-yl)ethynyl)-2-hydroxybenzoate], the inhibition at 10 µM in series [1] (setting [7]) and in series [1] (setting [8]) was 86.8% throughout. Also, in series [2] (first experiment, after 19 days, tail vein injection every 2 days, blood concentration 10 μM), the “tumor volume in the treatment group relative to the control group” value is 50%. Also, the “body weight of the mice” value in series [2] (mouse, in vivo) was “stable and balanced”. For the same compound, the “dissection of peritoneal/abdominal cavity” value in series [2] (mouse, in vivo) is recorded as “No abnormalities”. Further, the toxic side effects result in series [2] (mouse, in vivo) is recorded as “no obvious toxic side effects”; in series [3] (whole experiment) it was “no obvious toxic side effects”. Also, in series [2] (repeated experiment, 26th day, tail vein injection every 2 days, blood concentration 10 μM), the “tumor volume in the treatment group relative to the negative control group” value is reported as 50%. In addition, the mice died in series [2] (repeated experiment, on the 26th day) was 50%. Moreover, in series [3], the “average lung weight relative to the negative control group” value is on record as “⅓”. The “efficiency of preventing the occurrence of metastatic melanoma in the lung” value in series [3] (tail vein injection every 2 days) is on record as 100%.
As for `CCOC(=O)c1cnc(C#Cc2ccc3c(c2)C(C)(C)CCC3(C)C)nc1` [WYC-331, ethyl 2-((5,5,8,8-tetramethyl-5,6,7,8-tetrahydronaphth-2-yl)ethynyl)pyrimidin-5-carboxylate], the inhibition at 10 µM in series [1] (setting [7]) was determined as 96%. In addition, in series [1] (B16-F1, dose-response curve, colony tumor volume, read-out: IC50 of inhibition on TRCs of B16-F1 melanoma/μM), the IC50 turned out to be 0.017 µM. Besides, in series [1] (setting [8]), the inhibition at 10 µM amounted to 96%. In series [4], the “volume of colony tumor relative to None group” value is on record as 10-15%. Also, the “growth trend of colony tumor” value in series [5] is recorded as “reverse the growth trend of colony tumor”. In series [5] (10 μM), the “volume of colony tumor relative to None group” value was 10-15%. In series [6], the “effect on proliferation of 3T3 mouse embryonic fibroblast cells” value is recorded as “no effect on the growth of 3T3 cell clones” and the “induction of apoptosis of 3T3 mouse embryonic fibroblast cells” value was “did not exhibit significant apoptosis-inducing effect; also recorded: could not induce apoptosis”. Also, in the series with B16-F1 melanoma cells, the “effect on proliferation of B16-F1 melanoma cells” value is listed as “strongly inhibited the proliferation” and the “induction of apoptosis of B16-F1 melanoma cells” value is recorded as “did not exhibit significant apoptosis-inducing effect”.
